Tests used:
[1] = system: osteoblasts (monolayer culture); test: Alkaline phosphatase activity (histochemically), monolayer osteoblast cell culture; format: cell-based, rat; details: 3 weeks
Experimental: This isolation technique is based on the ability of osteoblasts to migrate from bone onto a substratum. Parietal and frontal calvariae (4 per animal) were aseptically explanted from 6 day-old IcoIbm rats. The calvariae were placed in Tyrode's balanced salt solution, calcium and magnesium free (TESS). The periosteum was enzymatically removed with 0.05% trypsin and 0.02% collagenase A (0.76 U/mg) dissolved in TBSS (40 calvaria/20 ml). The calvariae were shaken for 70 minutes in a waterbath at 37° C. They were washed with TESS and then transferred to 60 mm culture dishes (40 calvariae/dish) containing 5 ml of 0.02% collagenase A (0.76 U/mg) in culture medium BGJb Fitton-Jackson modification and placed in the incubator for 4 hours. The calvariae were then washed with culture medium B supplemented with 10% foetal calf serum (FCS). The calvariae were transferred into 60 mm culture dishes (4 frontal and 4 parietal/dish). The growth medium supplemented with 10% FCS and 50 μg/ml ascorbate was completely changed every 48 hours. The culture was kept for 3 weeks. After 3 weeks the migrated cells were harvested. The dish was washed with TESS, and 5 ml of TESS containing 0.05% trypsin and 0.02% collagenase A (0.76 U/mg) was added. […] The viability of the resuspended cells was examined by the dye exclusion of 0.4% trypan blue, and the cells were counted in a haeinocytometer. […]

[2] = system: embryonic rat femora; test: Embryonic rat femora wet weight in organ culture
Experimental: The rats were sacrificed on the 17th to 18th day of pregnancy. The embryos were aseptically removed from the uterus, and both femora were carefully dissected free into sterile TBSS under the stereo-microscope. Organ-culture of the rudiments was performed in 10 cm^2 plastic culture dishes. A Teflon carrier with a nylon mesh (20 μm pore size) was mounted in the dish, keeping the explants floating and ensuring optimal gas exchange and nutritional conditions. The right and the left femora from each animal were randomly assigned to the experimental or control group. The control groups were kept in 3 ml B with 50 μg/ml ascorbate. In the experimental group, the growth medium was supplemented with either 10 mM creatine, 20 mM creatine, 1 mM GPA, 5 mM GPA, or 10 mM GPA. The growth medium was renewed every second day until day 10. Culture was carried out at 37.5° C. and in a 5% CO2 atmosphere. At 10 days, the wet weight of each femora was determined on a microbalance. The result of each experimental femora was expressed relative to its collateral control. For the histological evaluation, the femora as fixed in 4% formaldehyde, dehydrated, and embedded in methylmethacrylate. The 6 μm sections were stained by Pentachrome-Movat.

[3] = system: osteoblasts (micromass culture); test: Mineralization, micromass osteoblast cell culture; format: cell-based, rat
Experimental: This isolation technique is based on the ability of osteoblasts to migrate from bone onto a substratum. Parietal and frontal calvariae (4 per animal) were aseptically explanted from 6 day-old IcoIbm rats. The calvariae were placed in Tyrode's balanced salt solution, calcium and magnesium free (TESS). The periosteum was enzymatically removed with 0.05% trypsin and 0.02% collagenase A (0.76 U/mg) dissolved in TBSS (40 calvaria/20 ml). The calvariae were shaken for 70 minutes in a waterbath at 37° C. They were washed with TESS and then transferred to 60 mm culture dishes (40 calvariae/dish) containing 5 ml of 0.02% collagenase A (0.76 U/mg) in culture medium BGJb Fitton-Jackson modification and placed in the incubator for 4 hours. The calvariae were then washed with culture medium B supplemented with 10% foetal calf serum (FCS). The calvariae were transferred into 60 mm culture dishes (4 frontal and 4 parietal/dish). The growth medium supplemented with 10% FCS and 50 μg/ml ascorbate was completely changed every 48 hours. The culture was kept for 3 weeks. After 3 weeks the migrated cells were harvested. The dish was washed with TESS, and 5 ml of TESS containing 0.05% trypsin and 0.02% collagenase A (0.76 U/mg) was added. After 1 hour in the incubator, the dish was washed with culture medium BGJb supplemented with 10% FCS. The dishes containing the calvariae and cells were rinsed with serum containing media BGJb. The cells obtained were filtered through a 40 μm nylon mesh to remove bone debris and cell aggregates. The suspended cells were centrifuged at 600 g for 5 minutes. The cell pellet was resuspended in serum containing medium BGJb and centrifuged. The viability of the resuspended cells was examined by the dye exclusion of 0.4% trypan blue, and the cells were counted in a haeinocytometer. The inoculation densities were 2·10^5/10 cm^2 for monolayer and 2·10^5/30 μl for micromasses. The micromass cultures were kept for 1 hour in the incubator before 2 ml growth medium was added. All the cultures were kept at 37° C. in a humidified atmosphere of 5% CO2, 95% air. All culture media were supplemented with 50 μg/ml ascorbate. To analyze the collagen types, 60 μg/ml beta-aminopropionitrile (beta-APN) was added to the culture medium. During cell isolation and inoculation, no ascorbate was used to increase plating efficiency. No antibiotics and no beta-glycerophosphate were added. The media were completely changed every 48 hours (60 mm culture dish 5 ml; 35 mm culture dish 2 ml). The most specific method for detecting calcified matrices is the von Kossa reaction. Silver staining indicates the presence of calcium phosphate aggregated with certain organic acids. Structural details are completely obscured by the dark precipitate. Calcified tissue components are darkened in various shades from light brown to deep black, irrespective of their mineral content. [table]

[4] = system: embryonic chick femora; details: cited from earlier work

| Structure (SMILES) | cell density around the nodules ([1]; GPA groups) | staining pattern for the ALP activity ([1]; higher magnification, compared with control and creatine groups) | wet weight of femora (FIG. 5) ([2]; 1 mM GPA vs control) | wet weight of femora (FIG. 5) ([2]; 5 mM GPA vs control, p<0.0005) | wet weight of femora (FIG. 5) ([2]; 10 mM GPA vs control, p<0.015) | mineralized area (FIG. 4) ([3]; 10 mM creatine vs control, 2 weeks, p<0.00025) | mineralized area (FIG. 4) ([3]; 10 mM creatine vs control, 3 weeks, p<0.0035) | mineralization (FIG. 4) ([3]; 10 mM creatine, 3 weeks vs 2 weeks, p<0.0015) | mineralized area (FIG. 4) ([3]; 20 mM creatine vs control, 2 weeks, p<0.00025) | mineralized area (FIG. 4) ([3]; 20 mM creatine vs control, 3 weeks, p<0.03) | wet weight of femora (FIG. 5) ([2]; 10 mM creatine vs control, p<0.0005) | wet weight of femora (FIG. 5) ([2]; 20 mM creatine vs control, p<0.001) | perichondral ossification in the diaphysis ([4]; 0.1 mM in chick embryo extract with 20% horse serum) | deposition of calcium in the cartilage matrix of the epiphysis ([4]; very crude preparations at 0.1 mM in chick embryo extract with 20% horse serum) |
| --- | --- | --- | --- | --- | --- | --- | --- | --- | --- | --- | --- | --- | --- | --- |
| N=C(N)NCCC(=O)O [GPA, beta-guanidinopropionic acid] | lower than in the control and the creatine groups | different staining pattern | not significantly different from the control | control (FIG. 5) had significantly lower wet weights than | control (FIG. 5) had significantly lower wet weights than |  |  |  |  |  |  |  |  |  |
| CN(CC(=O)O)C(=N)N [creatine] |  |  |  |  |  | significantly more mineralization | significantly higher | significantly higher mineralization | significantly more mineralization | significantly higher | control (FIG. 5) had significantly lower wet weights than | control (FIG. 5) had significantly lower wet weights than | accelerated | accelerated |
